In general, inhibition refers to the relative decrease from the control value, in per cent. A word on the IC50: it is the point on the concentration scale where inhibition reaches its midpoint. As usually defined, the Inhibition is the change of the read-out against control, counted positive when it falls. What is called % inhibition is the change of the read-out against control, counted positive when it falls.

Molecules are shown by their SMILES. Structures can show the parent of a compound that is named as a salt. Where two headings read alike, the source gives them in different places.

The text below walks through data of PMC7251097, “Aspartate/asparagine-β-hydroxylase: a high-throughput mass spectrometric assay for discovery of small molecule inhibitors” (Scientific Reports, 2020).

In this assay the target is T1, His6-AspH315–758 (human aspartate/asparagine-β-hydroxylase, AspH) (Homo sapiens, UniProt Q12797).
T1 construct: N-Terminally His6-tagged human AspH315–758 (His6-AspH315–758) was produced in E. coli BL21 (DE3) cells; made in house; host or cells: E. coli BL21 (DE3), pET-28a(+) vector
T1 sequence (Q12797 315-758): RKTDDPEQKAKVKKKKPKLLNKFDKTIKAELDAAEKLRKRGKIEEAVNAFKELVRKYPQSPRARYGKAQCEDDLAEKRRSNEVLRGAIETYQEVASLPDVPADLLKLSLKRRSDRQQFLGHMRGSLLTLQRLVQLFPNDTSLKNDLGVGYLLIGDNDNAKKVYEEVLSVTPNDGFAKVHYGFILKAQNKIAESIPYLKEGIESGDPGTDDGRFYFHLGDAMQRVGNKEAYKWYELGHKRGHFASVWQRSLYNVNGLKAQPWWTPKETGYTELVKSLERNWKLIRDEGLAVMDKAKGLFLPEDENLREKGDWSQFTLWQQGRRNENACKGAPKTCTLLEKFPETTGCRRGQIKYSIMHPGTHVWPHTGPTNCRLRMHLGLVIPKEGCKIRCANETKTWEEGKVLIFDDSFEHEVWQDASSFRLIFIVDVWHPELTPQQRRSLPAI
In words: SPE-MS AspH inhibition assay (LOPAC screen at fixed 20 μM and IC50 dose-response), hydroxylation of cyclic peptide hFX-CP101–119. Type of assay: biochemical. To be noted: for Plate 1 (% inhibition) / Plate 1 (% conversion): LOPAC compound at fixed 20 uM; for Plate 1 (% inhibition): plate 1, normalised to DMSO and 2,4-PDCA controls; for Plate 1 (% conversion) / % conversion: substrate conversion; for Plate 5 (% inhibition) / Plate 5 (% conversion): plate 5 (Pfitzer), test compounds at fixed 20 μM; for Plate 5 (% conversion): mean conversion DMSO 32.88.

The mark [1] stands for this setting: LOPAC compound at 20uM, plate 2, conversion of substrate peptide.
Setting [2] is: LOPAC compound at 20uM, plate 2, normalised to DMSO and 2,4-PDCA controls.
The mark [3] stands for this setting: LOPAC compound at 20uM, plate 2, normalised to DMSO and 2,4-PDCA controls, read-out: Plate 2 (% inhibition).
The mark [4] stands for this setting: 50 nM His6-AspH315–758, 1.0 μM hFX-CP101–119, 3 μM 2OG, 2 μM Fe(II), 50 mM HEPES pH 7.5, 20 °C, mean ± SD, n = 2 (2,4-PDCA n = 10), read-out: IC50.
The mark [5] stands for this setting: read-out: Plate 2 (% inhibition).
[6] abbreviates: LOPAC Plate 4, compound at 20 uM.

As to `O=C1NC(=O)c2cc(Nc3ccccc3)c(Nc3ccccc3)cc21` [DAPH], the “Plate 1 (% inhibition)” value is reported as -7.17% and the “Plate 1 (% conversion)” value amounted to 38.28%.

Consider `Clc1ccc(N2C[C@H]3CC[C@@H](C2)N3)nn1` [DBO-83], for which, under setting [1], the “Plate 2 (% conversion)” value is reported as 32.84%. Moreover, the “Plate 2 (% inhibition)” value under setting [2] is given as 9.30%.

Take `CCn1c(=O)[nH]c2cc(Cl)c(Cl)cc21` [DCEBIO]: under setting [1], the “Plate 2 (% conversion)” value stood at 39.27%. The “Plate 2 (% inhibition)” value under setting [2] is recorded as -9.89%.

With `Fc1cccc(/C=N/N=C/c2cccc(F)c2)c1` [DFB], the “Plate 3 (% conversion)” value (LOPAC compound at 20uM, plate 3, conversion of substrate peptide) turned out to be 35.73%.

`c1ccc(-c2cnn3cc(-c4ccc(OCCN5CCOCC5)cc4)cnc23)cc1` [DMH4]: the “Plate 1 (% inhibition)” value is -35.30% and the “Plate 1 (% conversion)” value came out at 47.73%.

Turning to `CC(C)[C@@H]1CC[C@@H](C)C[C@@H]1P(=O)(c1ccccc1)c1ccccc1` [DPO-1], under setting [1], the “Plate 2 (% conversion)” value came to 40.63%. Besides, the “Plate 2 (% inhibition)” value under setting [2] is listed as -13.96%.

Consider `CN(C)NC(=O)CCC(=O)O` [Daminozide, daminozide, reference compound], for which, for the setting “pH 7.5”, the “IC50 [μM]” value is “inactive”.

Take `C#C[C@]1(O)CC[C@H]2[C@@H]3CCC4=Cc5oncc5C[C@]4(C)[C@H]3CC[C@@]21C` [Danazol]: the “Plate 2 (% conversion)” value under setting [1] is recorded as 39.67%. The inhibition at 20 µM under setting [3] was -11.1%.

As for `O=c1ccc2ccc(O)c(O)c2o1` [Daphnetin, reference compound], the inhibition at 20 µM (AspH activity, fixed compound concentration 20 μM, initial LOPAC screen, 0.5%v/v DMSO, read-out: Inhibition at 20 µM [%]) came to 98.5%.

With `C[N+](C)(C)CCCCCCCCCC[N+](C)(C)C.[Br-].[Br-]` [Decamethonium dibromide], the “Plate 2 (% conversion)” value is 41.52%. In addition, the “Plate 2 (% inhibition)” value (20 µM) is listed as -16.63%.

As to `O=C(O)c1ccc(-n2nc(-c3ccccc3O)nc2-c2ccccc2O)cc1` [Deferasirox, reference compound], the half-inhibitory concentration (IC50) under setting [4] was determined as 2.08 ± 0.81 µM.

For the compound `Cc1c(O)c(=O)ccn1C` [Deferiprone, reference compound], the IC50 under setting [4] is 4.89 ± 0.37 µM.

With `CC(=O)N(O)CCCCCNC(=O)CCC(=O)N(O)CCCCCNC(=O)CCC(=O)N(O)CCCCCN` [Deferoxamine mesylate, reference compound], the 50% inhibitory concentration (IC50) under setting [4] stood at 3.16 ± 0.93 µM.

With `CC(C)Nc1cccnc1N1CCN(C(=O)c2cc3cc(NS(C)(=O)=O)ccc3[nH]2)CC1` [Delavirdine], the “Plate 5 (% inhibition)” value turned out to be 28.61% and the “Plate 5 (% conversion)” value turned out to be 26.58%.

The compound `O=C(O)CNC(=O)c1c(O)c2ccccc2n(OCC2CC2)c1=O` [Desidustat, desidustat, reference compound] had a half-inhibitory concentration (IC50) (IC50 [μM]) of 16.3 ± 0.44 µM.

Turning to `CNCCCN1c2ccccc2CCc2ccccc21` [Desipramine hydrochloride], under setting [1], the “Plate 2 (% conversion)” value is given as 40.94%. In addition, the inhibition at 20 µM under setting [3] is -14.9%.

Turning to `O=c1c2ccccc2[nH]c(=S)n1CCN1CCC(=C(c2ccc(F)cc2)c2ccc(F)cc2)CC1` [Diacylglycerol Kinase Inhibitor II], under setting [1], the “Plate 2 (% conversion)” value is on record as 21.33%. Under setting [3], the inhibition at 20 µM was 43.7%.

As to `O=C(O)Cc1ccccc1Nc1c(Cl)cccc1Cl` [Diclofenac sodium], the “Plate 2 (% conversion)” value under setting [1] is on record as 32.33%. The inhibition at 20 µM under setting [3] turned out to be 10.8%.

On to `O=C(O)CN(CCN(CC(=O)O)CC(=O)O)CCN(CC(=O)O)CC(=O)O` [Diethylenetriaminepentaacetic acid, reference compound], for which the “Inhibition at 20 µM [%]” value (AspH activity, fixed compound concentration 20 μM, initial LOPAC screen, 0.5%v/v DMSO) is on record as 100.3%. For the same compound, under setting [1], the “Plate 2 (% conversion)” value is 2.39%. The “Plate 2 (% inhibition)” value under setting [2] is recorded as 100.26%.

Take `CN1C[C@H](C(=O)N[C@]2(C)O[C@@]3(O)[C@@H]4CCCN4C(=O)[C@H](Cc4ccccc4)N3C2=O)C[C@@H]2c3cccc4[nH]cc(c34)C[C@H]21` [Dihydroergotamine methanesulfonate]: the “Plate 2 (% conversion)” value stood at 37.10%. The inhibition at 20 µM under setting [5] was -3.42%.

With `CC(C)[C@H]1CN[C@H](C(=O)O)[C@H]1CC(=O)O` [Dihydrokainic acid], the “Plate 2 (% conversion)” value is given as 34.38%. For the setting “20 µM”, the “Plate 2 (% inhibition)” value is recorded as 4.72%.

Take `C[C@@H]1O[C@@H](O[C@H]2C[C@@H](O)[C@]3(CO)[C@H]4[C@H](O)C[C@]5(C)[C@@H]([C@@H]6COC(=O)C6)CC[C@]5(O)[C@@H]4CC[C@]3(O)C2)[C@H](O)[C@H](O)[C@H]1O` [Dihydroouabain]: the “Plate 2 (% conversion)” value stood at 38.16%. Also, the “Plate 2 (% inhibition)” value (20 µM) is recorded as -6.59%.

`COc1cc(C(=O)OCCCN2CCCN(CCCOC(=O)c3cc(OC)c(OC)c(OC)c3)CC2)cc(OC)c1OC` [Dilazep hydrochloride]: the “Plate 2 (% conversion)” value under setting [1] turned out to be 41.49%. In addition, under setting [3], the inhibition at 20 µM was -16.5%.

As for `CN(C)CCOC(c1ccccc1)c1ccccc1` [Diphenhydramine hydrochloride], the inhibition at 20 µM under setting [3] was -7.73%.

For `c1ccc2c(c1)[I+]c1ccccc1-2` [Diphenyleneiodonium chloride], the “Plate 2 (% conversion)” value came to 35.66%. Besides, the inhibition at 20 µM under setting [5] turned out to be 0.88%.

As for `CCCN(CCC)CCc1ccc(O)c(O)c1` [Dipropyldopamine hydrobromide], the “Plate 2 (% conversion)” value turned out to be 10.27%. In addition, under setting [5], the inhibition at 20 µM worked out at 76.7%.

With `OCCN(CCO)c1nc(N2CCCCC2)c2nc(N(CCO)CCO)nc(N3CCCCC3)c2n1` [Dipyridamole], the “Plate 2 (% conversion)” value under setting [1] was 42.60%. The inhibition at 20 µM under setting [3] was -19.9%.

With `CC(CCc1ccc(O)cc1)NCCc1ccc(O)c(O)c1` (stereo not shown) [Dobutamine hydrochloride], the “Plate 2 (% conversion)” value under setting [1] is 8.47%. The inhibition at 20 µM under setting [3] was 82.1%.

In the case of `CN(CCOc1ccc(NS(C)(=O)=O)cc1)CCc1ccc(NS(C)(=O)=O)cc1` [Dofetilide], the “Plate 5 (% inhibition)” value was -1.04% and the “Plate 5 (% conversion)” value was found to be 36.67%. Besides, the inhibition at 20 µM under setting [3] was -3.76%.

Consider `CS(=O)(=O)O.O.O=C(OC1C[C@@H]2CC3C[C@H](C1)N2CC3=O)c1c[nH]c2ccccc12` (stereo partly shown) [Dolasetron mesylate hydrate], for which, under setting [6], the “% inhibition” value is -4.53% and the “% conversion” value is 38.02%.

In the case of `Cl.N#Cc1ccc(N2CCN(C(=O)COc3ccc4[nH]cc(CCN)c4c3)CC2)cc1` [Donitriptan monohydrochloride], under setting [1], the “Plate 2 (% conversion)” value is 23.20%. The “Plate 2 (% inhibition)” value under setting [2] was found to be 38.09%.

On to `COc1cc2nc(N3CCN(C(=O)C4COc5ccccc5O4)CC3)nc(N)c2cc1OC` (stereo not shown) [Doxazosin mesylate], for which the “Plate 2 (% conversion)” value under setting [1] is 41.90%. Besides, the inhibition at 20 µM under setting [3] is -17.8%.

Turning to `Cc1cc(Cl)ccc1OCCCC(=O)NO` [Droxinostat], the “Plate 1 (% inhibition)” value was determined as 1.86% and the “Plate 1 (% conversion)” value is given as 35.25%.

`CCOC(=O)C1=C(O)C(=O)N(Cc2ccccc2)C1` [EBPC]: the “Plate 5 (% inhibition)” value is given as 19.44% and the “Plate 5 (% conversion)” value worked out at 29.70%. For the same compound, the “% conversion” value under setting [6] was determined as 36.52%.

Consider `O=C(O)CN(CCOCCOCCN(CC(=O)O)CC(=O)O)CC(=O)O` [EGTA], for which the “Plate 2 (% conversion)” value under setting [1] came to 38.29%. The “Plate 2 (% inhibition)” value under setting [2] is reported as -6.96%.

With `C=Cc1cc(O)cc2nc(-c3ccc(O)c(F)c3)oc12` [ERB-041], the “Plate 5 (% inhibition)” value is listed as 30.36% and the “Plate 5 (% conversion)” value is listed as 25.98%.

Take `O=c1c2ccccc2[se]n1-c1ccccc1` [Ebselen, ebselen, reference compound]: under setting [4], the concentration for half-maximal inhibition (IC50) was determined as 0.12 ± 0.01 µM.

With `CC[N+](C)(C)c1cccc(O)c1` [Edrophonium chloride], the “Plate 2 (% conversion)” value is reported as 37.54%. The inhibition at 20 µM under setting [5] is -4.75%.
